Series [1] can be described thus: NMR comparison of CBD before and after encapsulation into nanoparticles (stability). In kind it is physicochemical. Conditions: encapsulated CBD (bottom spectrum) relative to non-encapsulated CBD sample (top spectrum), FIG. 3. From the text:
In some aspects, the cannabinoid in the dispersion can have a purity of at least 90%. In a further aspect, the purity of the cannabinoid in the dispersion ranges from 90-100%. In a still further aspect, the purity of the cannabinoid in the dispersion ranges from 92-97%. In general, the inventors have discovered that the encapsulation process described herein can be improved with the use of a pure cannabinoid starting material (e.g., from 92-97% pure). Similarly, the nanoparticle encapsulated cannabinoid products can advantageously maintain the purity of the cannabinoid over extended periods of time. In some aspects, the purity of the cannabinoid starting material can be maintained once encapsulated for a period of twelve months or longer, e.g., 18 months or longer, or even 24 months or longer. The stable shelf life of the cannabinoid nanoparticles is an advantage over many existing methods for delivering cannabinoid products. In some aspects, the stability of the cannabinoid can be measured using NMR, e.g., by comparing a pre-encapsulated cannabinoid to a cannabinoid extracted from a nanoparticle prepared by a disclosed method.

The conditions of series [2]: dystonia and parkinsonism due to antipsychotics; cited from earlier work.

The structures appear in SMILES notation.

For `C=C(C)[C@@H]1CCC(C)=C[C@H]1c1c(O)cc(CCCCC)cc1O` [CBD, cannabidiol], the “stability of CBD after encapsulation into nanoparticles (NMR spectra)” value in series [1] was “remains intact”.
For the compound `CN1[C@@H]2CC[C@H]1C[C@@H](OC(c1ccccc1)c1ccccc1)C2` [Benztropine], in series [2], the duration of benefits is no more than 10 h and the “time until benefits are seen” value is no more than 2 h.

The values above are taken from patent US20230149318A1, “COMBINATIONS OF NANOPARTICLE-ENCAPSULATED CARGO ENTITIES AND METHODS FOR MAKING AND USING SAME” (Nurevelation, LLC, priority 2021, published 2023).
